Experimental data published in patent US11576896B2, “Benzoselenophene-based compounds, pharmaceutical compositions and antibody-drug conjugates including the same” (AIMED BIO INC., priority 2020, dated 2023).
Like-named read-outs stand apart in the source and are kept apart here.

What was measured:
[1] = test system: ovarian cancer cells SK-OV-3; assay: High-throughput screening (HTS) cytotoxicity, ATPlite assay; format: cell-based; parameters: AUC (area under the curve): unit not given beside the values; details: for IC50: Homo sapiens
Method: (§1) The present inventors used an HTS system capable of screening various drugs or substances at once to further screen cytotoxicity of DS-26 (Example 1) and DS-28 (Comparative Example 1). Gastric cancer cells NCI-N87 and ovarian cancer cells SK-OV-3 were separately seeded in a 384-well and treated with drugs at various concentrations and cultured for 72 hours. Then, the degree of cell growth was measured by ATPlite assay. The measured data were converted into IC50 using GraphPad Prism 5.0 software, and area under the curve (AUC) was converted to analyze the titer of each drug.
(§2) Also, DS-26 has stable solubility and stability in terms of chemical structure and thus considered worthy to be developed into drugs.

[2] = test system: Gastric cancer cells NCI-N87; assay: as above; format: cell-based; parameters: AUC (area under the curve): unit not given beside the values; details: NCI-N87 (HER+), 384-well, 72 hours; for IC50: Homo sapiens
Method: as §1, §2

[3] = SK-OV-3 (HER+), 384-well, 72 hours, ATPlite, read-out: IC50
[4] = SK-OV-3 (HER+), 384-well, 72 hours, ATPlite

Row | Compound | IC50 [1, 3] | IC50 ([1]; text summary of Table 1 and FIGS. 2A-3B, cell line not specified (NCI-N87 and SK-OV-3 tested), read-out: IC50 (text summary of HTS result)) | AUC (area under the curve) [1, 4] | IC50 [2] | AUC (area under the curve) [2]
1 | COc1ccc2c(O)cc3c(c2c1)[C@H](CCl)CN3C(=O)c1cc2cc(NC(=O)CCN(C)C)ccc2[se]1 [DS-26, (S)—N-(2-(1-(chloromethyl)-5-hydroxy-8-methoxy-2,3-dihydro-1H-benzo[e]indole-3-carbonyl)benzo[b]selenophen-5-yl)-3-(dimethylamino)propanamide] | 0.042 nM | 0.04 to 0.05 nM | 481 | 0.00555 nM | 477
2 | COCCOCCOCCOCCOc1cc2[se]c(C(=O)N3C[C@@H](CCl)c4c3cc(O)c3ccc(OC)cc43)cc2cc1NC(C)=O [DS-28, reference compound] | 1.68 nM |  | 613 | 5.86 nM | 689
